Reference: PubChem BioAssay AID1919000 (Molecular Pharmacology Branch, DTP, NCI, 2023)
Values joined by “and” are separate entries in the source; they are usually repeats but may differ in a detail not shown here. Identical values can stand only once.

System: 653999-131-R-J2-PDC complex spheroids, growth % test/control
Assay: Anticancer human tumor 653999-131-R-J2-PDC patient-derived lung adenocarcinoma cell line growth inhibition [AhR]
Conditions: for viability, T/C: stronger effect = lower value
Summary of the method: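 Complex tumor spheroids co-cultured with HUVEC and human MSC stroma; AhR antagonists tested in combination with standard-of-care and investigational agents. Top concentration at or near clinical Cmax (else 10 microM), half-log dilutions; growth expressed as percent test/control.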

[1] = curve of first compound, second compound 0.1 µM
[2] = curve of first compound, second compound 0.316 µM
[3] = curve of first compound, second compound 1 µM
[4] = curve of first compound, second compound 3.16 µM
[5] = curve of first compound, second compound 10 µM
[6] = second compound 0.1 µM, first compound 0.000316 µM
[7] = second compound 0.1 µM, first compound 0.001 µM
[8] = second compound 0.1 µM, first compound 0.00316 µM
[9] = second compound 0.1 µM, first compound 0.01 µM
[10] = second compound 0.1 µM, first compound 0.0316 µM
[11] = second compound 0.1 µM, first compound 0.1 µM
[12] = second compound 0.316 µM, first compound 0.000316 µM
[13] = second compound 0.316 µM, first compound 0.001 µM
[14] = second compound 0.316 µM, first compound 0.00316 µM
[15] = second compound 0.316 µM, first compound 0.01 µM
[16] = second compound 0.316 µM, first compound 0.0316 µM
[17] = second compound 0.316 µM, first compound 0.1 µM
[18] = second compound 1 µM, first compound 0.000316 µM
[19] = second compound 1 µM, first compound 0.001 µM
[20] = second compound 1 µM, first compound 0.00316 µM
[21] = second compound 1 µM, first compound 0.01 µM
[22] = second compound 1 µM, first compound 0.0316 µM
[23] = second compound 1 µM, first compound 0.1 µM
[24] = second compound 3.16 µM, first compound 0.000316 µM
[25] = second compound 3.16 µM, first compound 0.001 µM
[26] = second compound 3.16 µM, first compound 0.00316 µM
[27] = second compound 3.16 µM, first compound 0.01 µM
[28] = second compound 3.16 µM, first compound 0.0316 µM
[29] = second compound 3.16 µM, first compound 0.1 µM
[30] = second compound 10 µM, first compound 0.000316 µM
[31] = second compound 10 µM, first compound 0.001 µM
[32] = second compound 10 µM, first compound 0.00316 µM
[33] = second compound 10 µM, first compound 0.01 µM
[34] = second compound 10 µM, first compound 0.0316 µM
[35] = second compound 10 µM, first compound 0.1 µM
[36] = second compound 0.1 µM, first compound 0.00949 µM
[37] = second compound 0.1 µM, first compound 0.03 µM
[38] = second compound 0.1 µM, first compound 0.0949 µM
[39] = second compound 0.1 µM, first compound 0.3 µM
[40] = second compound 0.316 µM, first compound 0.00949 µM
[41] = second compound 0.316 µM, first compound 0.03 µM
[42] = second compound 0.316 µM, first compound 0.0949 µM
[43] = second compound 0.316 µM, first compound 0.3 µM
[44] = second compound 1 µM, first compound 0.00949 µM
[45] = second compound 1 µM, first compound 0.03 µM
[46] = second compound 1 µM, first compound 0.0949 µM
[47] = second compound 1 µM, first compound 0.3 µM
[48] = second compound 3.16 µM, first compound 0.00949 µM
[49] = second compound 3.16 µM, first compound 0.03 µM
[50] = second compound 3.16 µM, first compound 0.0949 µM
[51] = second compound 3.16 µM, first compound 0.3 µM
[52] = second compound 10 µM, first compound 0.00949 µM
[53] = second compound 10 µM, first compound 0.03 µM
[54] = second compound 10 µM, first compound 0.0949 µM
[55] = second compound 10 µM, first compound 0.3 µM
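Further: spheroids exposed to agents for seven days.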
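Wherever viability, T/C is given: 100% = DMSO vehicle control viability.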

## CC[C@@]1(O)C(=O)OCc2c1cc1n(c2=O)Cc2cc3c(CN(C)C)c(O)ccc3nc2-1 + Cc1ccccc1N=Nc1ccc(NC(=O)c2ccnn2C)c(C)c1
[1]
  IC50: 77.5 nM
[2]
  IC50: 79.6 nM
[3]
  IC50: 68.2 nM
[4]
  IC50: 84.9 nM
[5]
  IC50: > 100 nM
[6]
  viability, T/C: 111%
[7]
  viability, T/C: 104%
[8]
  viability, T/C: 93.1%
[9]
  viability, T/C: 87.7%
[10]
  viability, T/C: 63.7%
[11]
  viability, T/C: 45.9%
[12]
  viability, T/C: 95%
[13]
  viability, T/C: 108%
[14]
  viability, T/C: 120%
[15]
  viability, T/C: 88.3%
[16]
  viability, T/C: 63.4%
[17]
  viability, T/C: 46%
[18]
  viability, T/C: 101%
[19]
  viability, T/C: 122%
[20]
  viability, T/C: 109%
[21]
  viability, T/C: 94.5%
[22]
  viability, T/C: 61.6%
[23]
  viability, T/C: 44.2%
[24]
  viability, T/C: 103%
[25]
  viability, T/C: 110%
[26]
  viability, T/C: 109%
[27]
  viability, T/C: 91.7%
[28]
  viability, T/C: 59%
[29]
  viability, T/C: 48.2%
[30]
  viability, T/C: 117%
[31]
  viability, T/C: 106%
[32]
  viability, T/C: 101%
[33]
  viability, T/C: 82.3%
[34]
  viability, T/C: 65.8%
[35]
  viability, T/C: 57.8%

## CC(C)c1c(-c2ccccc2)nc2c(C#N)c[nH]n2c1=O
Compound 0.0316 µM
  viability, T/C: 109% and 93.9% and 110%
Compound 0.1 µM
  viability, T/C: 112% (2×) and 109%
Compound 0.316 µM
  viability, T/C: 96.8% and 108% and 104%
Compound 1 µM
  viability, T/C: 90.2% and 116% and 109%
Compound 3.16 µM
  viability, T/C: 103% and 101% (2×)
Compound 10 µM
  viability, T/C: 96.2% (2×) and 103%
Curve of compound
  IC50: > 10000 nM

## CC[C@@]1(O)C(=O)OCc2c1cc1n(c2=O)Cc2cc3c(CN(C)C)c(O)ccc3nc2-1 + CC(CO)NC(=O)c1cc(-c2ccc(Cl)cc2)nn(-c2cnn(C)c2)c1=O
[1]
  IC50: 36.7 nM
[2]
  IC50: 27.7 nM
[3]
  IC50: 24.5 nM
[4]
  IC50: 22.9 nM
[5]
  IC50: 21 nM
[6]
  viability, T/C: 94.8%
[7]
  viability, T/C: 97.8%
[8]
  viability, T/C: 94.9%
[9]
  viability, T/C: 79%
[10]
  viability, T/C: 52.2%
[11]
  viability, T/C: 38.1%
[12]
  viability, T/C: 93.2%
[13]
  viability, T/C: 94.4%
[14]
  viability, T/C: 97.4%
[15]
  viability, T/C: 79.1%
[16]
  viability, T/C: 46.8%
[17]
  viability, T/C: 31.3%
[18]
  viability, T/C: 111%
[19]
  viability, T/C: 96%
[20]
  viability, T/C: 99.1%
[21]
  viability, T/C: 80.7%
[22]
  viability, T/C: 40.6%
[23]
  viability, T/C: 32.3%
[24]
  viability, T/C: 85.9%
[25]
  viability, T/C: 92.3%
[26]
  viability, T/C: 95.3%
[27]
  viability, T/C: 69.8%
[28]
  viability, T/C: 43.6%
[29]
  viability, T/C: 31.4%
[30]
  viability, T/C: 90.5%
[31]
  viability, T/C: 95.3%
[32]
  viability, T/C: 83.7%
[33]
  viability, T/C: 65.9%
[34]
  viability, T/C: 41.3%
[35]
  viability, T/C: 32.3%

## O=C(C=Cn1cnc(-c2cc(C(F)(F)F)cc(C(F)(F)F)c2)n1)NNc1cnccn1 + CC(CO)NC(=O)c1cc(-c2ccc(Cl)cc2)nn(-c2cnn(C)c2)c1=O
[1]
  IC50: 766 nM
[2]
  IC50: 771 nM
[3]
  IC50: 814 nM
[4]
  IC50: 1230 nM
[5]
  IC50: > 3000 nM
[36]
  viability, T/C: 103%
[37]
  viability, T/C: 110%
[38]
  viability, T/C: 76.1%
[39]
  viability, T/C: 59.7%
Second compound 0.1 µM, first compound 0.949 µM
  viability, T/C: 48.9%
Second compound 0.1 µM, first compound 3 µM
  viability, T/C: 45.1%
[40]
  viability, T/C: 109%
[41]
  viability, T/C: 98%
[42]
  viability, T/C: 71.3%
[43]
  viability, T/C: 59.7%
Second compound 0.316 µM, first compound 0.949 µM
  viability, T/C: 51.1%
Second compound 0.316 µM, first compound 3 µM
  viability, T/C: 40%
[44]
  viability, T/C: 95.8%
[45]
  viability, T/C: 103%
[46]
  viability, T/C: 86.1%
[47]
  viability, T/C: 61.1%
Second compound 1 µM, first compound 0.949 µM
  viability, T/C: 51.7%
Second compound 1 µM, first compound 3 µM
  viability, T/C: 42.8%
[48]
  viability, T/C: 114%
[49]
  viability, T/C: 105%
[50]
  viability, T/C: 96.1%
[51]
  viability, T/C: 64.2%
Second compound 3.16 µM, first compound 0.949 µM
  viability, T/C: 55.5%
Second compound 3.16 µM, first compound 3 µM
  viability, T/C: 43.6%
[52]
  viability, T/C: 111%
[53]
  viability, T/C: 101%
[54]
  viability, T/C: 86.5%
[55]
  viability, T/C: 65.6%
Second compound 10 µM, first compound 0.949 µM
  viability, T/C: 54%
Second compound 10 µM, first compound 3 µM
  viability, T/C: 54.4%

## CC(C)CC(NC(=O)C(Cc1ccccc1)NC(=O)c1cnccn1)B(O)O (centres undefined) + Cc1ccccc1N=Nc1ccc(NC(=O)c2ccnn2C)c(C)c1
[1]
  IC50: 20.4 nM
[2]
  IC50: 20.2 nM
[3]
  IC50: 19.6 nM
[4]
  IC50: 20.7 nM
[5]
  IC50: 22.1 nM
Second compound 0.1 µM, first compound 0.000949 µM
  viability, T/C: 103%
Second compound 0.1 µM, first compound 0.003 µM
  viability, T/C: 117%
[36]
  viability, T/C: 82.6%
[37]
  viability, T/C: 33.1%
[38]
  viability, T/C: 12.7%
[39]
  viability, T/C: 4.4%
Second compound 0.316 µM, first compound 0.000949 µM
  viability, T/C: 89.7%
Second compound 0.316 µM, first compound 0.003 µM
  viability, T/C: 116%
[40]
  viability, T/C: 91%
[41]
  viability, T/C: 28.3%
[42]
  viability, T/C: 10.5%
[43]
  viability, T/C: 6.14%
Second compound 1 µM, first compound 0.000949 µM
  viability, T/C: 100%
Second compound 1 µM, first compound 0.003 µM
  viability, T/C: 108%
[44]
  viability, T/C: 87.6%
[45]
  viability, T/C: 27.4%
[46]
  viability, T/C: 14.9%
[47]
  viability, T/C: 6.46%
Second compound 3.16 µM, first compound 0.000949 µM
  viability, T/C: 97.6%
Second compound 3.16 µM, first compound 0.003 µM
  viability, T/C: 96.8%
[48]
  viability, T/C: 86.7%
[49]
  viability, T/C: 31.8%
[50]
  viability, T/C: 20.8%
[51]
  viability, T/C: 7.43%
Second compound 10 µM, first compound 0.000949 µM
  viability, T/C: 89.1%
Second compound 10 µM, first compound 0.003 µM
  viability, T/C: 98.1%
[52]
  viability, T/C: 80%
[53]
  viability, T/C: 37.8%
[54]
  viability, T/C: 25.2%
[55]
  viability, T/C: 11.4%

## NS(=O)(=O)OCC1CC(n2ccc3c(NC4CCc5ccccc54)ncnc32)CC1O (centres undefined)
Compound 0.0316 µM
  viability, T/C: 101% and 97.7% and 115%
Compound 0.1 µM
  viability, T/C: 98.7% and 110% and 114%
Compound 0.316 µM
  viability, T/C: 89.3% and 95.5% and 96%
Compound 1 µM
  viability, T/C: 89.8% and 104% and 105%
Compound 3.16 µM
  viability, T/C: 91.9% and 83.5% and 78.4%
Compound 10 µM
  viability, T/C: 53.4% and 61.8% and 55.4%
Curve of compound
  IC50: > 10000 nM
